Like-named read-outs stand apart in the source and are kept apart here.
Key:
[1] = biological target: T1, HCV NS5B RdRp genotype 1b (Hepatitis C virus genotype 1b, UniProt Q9WMX2); assay: HCV NS5B RdRp enzyme assay (standard / modified); type: biochemical
T1 construct: The protein was expressed with an 18 amino acid C-terminal truncation to enhance the solubility; made in house; host or cells: E. coli BL21(DE3), pET21a vector
Experimental: HCV NS5B RdRp Cloning, Expression, and Purification.
The cDNA encoding the NS5B protein of HCV, genotype 1b, was cloned into the pET21a expression vector. The protein was expressed with an 18 amino acid C-terminal truncation to enhance the solubility. The E. coli competent cell line BL21(DE3) was used for expression of the protein. Cultures were grown at 37° C. for ˜4 hours until the cultures reached an optical density of 2.0 at 600 nm. The cultures were cooled to 20° C. and induced with 1 mM IPTG. Fresh ampicillin was added to a final concentration of 50 μg/ml and the cells were grown overnight at 20° C.
The lysis buffer consisted of 20 mM Tris-HCl, pH 7.4, 500 mM NaCl, 0.5% triton X-100, 1 mM DTT, 1 mM EDTA, 20% glycerol, 0.5 mg/ml lysozyme, 10 mM MgCl2, 15 ug/ml deoxyribonuclease I, and Complete TM protease inhibitor tablets (Roche). After addition of the lysis buffer, frozen cell pellets were resuspended using a tissue homogenizer. To reduce the viscosity of the sample, aliquots of the lysate were sonicated on ice using a microtip attached to a Branson sonicator. The sonicated lysate was centrifuged at 100,000×g for 1 hr at 4° C. and filtered through a 0.2 μm filter unit (Corning).
The protein was purified using two sequential chromatography steps: Heparin sepharose CL-6B and polyU sepharose 4B (Pharmacia). The chromatography buffers were identical to the lysis buffer but contained no lysozyme, deoxyribonuclease I, MgCl2 or protease inhibitor and the NaCl concentration of the buffer was adjusted according to the requirements for charging the protein onto the column. Each column was eluted with a NaCl gradient which varied in length from 5-50 column volumes depending on the column type. […] The enzyme was aliquoted and stored at −80° C.
Standard HCV NS5B RdRp Enzyme Assay.
HCV RdRp genotype 1b assays were run in a final volume of 60 μl in 96 well plates (Corning 3600). The assay buffer is composed of 20 mM Hepes, pH 7.5, 2.5 mM KCl, 2.5 mM MgCl2, 1 mM DTT, 1.6 U RNAse inhibitor (Promega N2515), 0.01 mg/ml BSA (Sigma B6917), and 2% glycerol. All compounds were serially diluted (3-fold) in DMSO and diluted further in water such that the final concentration of DMSO in the assay was 2%. HCV RdRp genotype 1b enzyme was used at a final concentration of 28 nM. A polyA template was used at 6 nM, and a biotinylated oligo-dT12 primer was used at 180 nM final concentration. Template was obtained commercially (Amersham 27-4110). Biotinylated primer was prepared by Sigma Genosys. 3H-UTP was used at 0.6 μCi (0.29 μM total UTP). Reactions were initiated by the addition of enzyme, incubated at 30° C. for 60 min, and stopped by adding 25 μl of 50 mM EDTA containing SPA beads (4 μg/μl, Amersham RPNQ 0007). Plates were read on a Packard Top Count NXT after >1 hr incubation at room temperature.
Modified HCV NS5B RdRp Enzyme Assay.
A modified enzyme assay was performed essentially as described for the standard enzyme assay except for the following: The biotinylated oligo dT12 primer was precaptured on streptavidin-coated SPA beads by mixing primer and beads in assay buffer and incubating at room temperature for one hour. Unbound primer was removed after centrifugation. The primer-bound beads were resuspended in 20 mM Hepes buffer, pH 7.5 and used in the assay at final concentrations of 20 nM primer and 0.67 μg/μl beads. Order of addition in the assay: enzyme (1.75 nM) was added to diluted compound followed by the addition of a mixture of template (0.36 nM), 3H-UTP (0.6 μCi, 0.29 μM), and primer-bound beads, to initiate the reaction; concentrations given are final. Reactions were allowed to proceed for 4 hours at 30° C.
IC50 values for compounds were determined using seven different [I].

HCV replicon cells = assay: HCV replicon FRET / luciferase assay; type: cell-based, Hepatitis C virus
Experimental: The HCV FRET screening assay was performed in 96-well cell culture plates. The FRET peptide (Anaspec, Inc.) (Taliani et al., Anal. Biochem. 1996, 240, 60-67) contains a fluorescence donor, EDANS, near one end of the peptide and an acceptor, DABCYL, near the other end. The fluorescence of the peptide is quenched by […] resonance energy transfer (RET) between the donor and the acceptor, but as the NS3 protease cleaves the peptide the products are released from RET quenching and the fluorescence of the donor becomes apparent. The assay reagent was made as follows: 5× cell Luciferase cell culture lysis reagent from Promega (#E153A) diluted to 1× with dH2O, NaCl added to 150 mM final, the FRET peptide diluted to 20 μM final from a 2 mM stock.
To prepare plates, HCV replicon cells, with or without a Renilla luciferase reporter gene, were trypsinized and plated in a 96-well plate with titrated test compounds added in columns 3 through 12; columns 1 and 2 contained a control compound (HCV control inhibitor), and the bottom row contained cells with DMSO only. The plates were then placed in a CO2 incubator at 37° C.
Subsequent to addition of the test compounds described above (FRET Assay Preparation), at various times the plate was removed and Alamar blue solution (Trek Diagnostics, #00-100) was added to measure cellular toxicity. After reading in a Cytoflour 4000 instrument (PE Biosystems), plates were rinsed with PBS and then used for FRET assay by the addition of 30 ul of the FRET peptide assay reagent described above (FRET Assay Preparation) per well. The plate was then placed into the Cytoflour 4000 instrument which had been set to 340 excite/490 emission, automatic mode for up to 20 cycles and the plate read in a kinetic mode. Typically, the signal to noise using an endpoint analysis after the reads was at least three-fold. Alternatively, after Alamar blue reading, plates were rinsed with PBS, then used for luciferase assay using the Promega Dual-Glo Luciferase Assay System or the Promega EnduRen Live Cell Substrate assay.
Compound analysis was performed by quantification of the relative HCV replicon inhibition and the relative cytotoxicity values. To calculate cytoxicity values, the average Alamar Blue fluorescence signals from the control wells were set as 100% non-toxic. The individual signals in each of the compound test wells were then divided by the average control signal and multiplied by 100% to determine […]. To calculate the HCV replicon inhibition values, an average background value was obtained from the two wells containing the highest amount of HCV control inhibitor at the end of the assay period. These numbers were similar to those obtained from naïve Huh-7 cells. The background numbers were then subtracted from the average signal obtained from the control wells and this number was used as 100% activity. The individual signals in each of the compound test wells were then divided by the averaged control values after background subtraction and multiplied by 100% to determine percent activity. […] The two numbers generated for the compound plate, percent cytoxicity and percent activity, were used to determine compounds of interest for further analysis.

[2] = HCV replicon cells, FRET or luciferase activity

T1 sequence (Q9WMX2 2420-2992): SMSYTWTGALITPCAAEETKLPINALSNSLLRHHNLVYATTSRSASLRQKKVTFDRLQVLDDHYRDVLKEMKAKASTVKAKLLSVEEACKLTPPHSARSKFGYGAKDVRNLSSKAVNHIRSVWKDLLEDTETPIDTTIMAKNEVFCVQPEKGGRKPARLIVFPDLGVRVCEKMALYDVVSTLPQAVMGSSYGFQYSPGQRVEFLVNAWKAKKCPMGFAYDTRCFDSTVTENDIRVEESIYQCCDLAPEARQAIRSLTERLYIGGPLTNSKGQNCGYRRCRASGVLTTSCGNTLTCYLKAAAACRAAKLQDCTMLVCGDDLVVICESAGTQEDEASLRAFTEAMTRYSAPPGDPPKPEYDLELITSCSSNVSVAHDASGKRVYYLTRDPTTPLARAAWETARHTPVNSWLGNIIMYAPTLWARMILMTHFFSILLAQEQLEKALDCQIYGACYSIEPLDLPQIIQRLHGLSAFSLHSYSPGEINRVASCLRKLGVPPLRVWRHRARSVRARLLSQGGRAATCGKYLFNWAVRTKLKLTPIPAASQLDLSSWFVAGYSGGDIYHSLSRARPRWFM

Compound	IC50 [1] [nM]	EC50 (HCV replicon cells; Hepatitis C virus) [nM]	EC50 (HCV replicon cells; Hepatitis C virus, HCV replicon cells, FRET or luciferase activity, read-out: EC50) [nM]	EC50 (HCV replicon cells; [2]) [nM]
COc1ccc2c(c1)C1CC1(C(=O)N1CC3CCC(C1)N3C)Cn1c-2c(C2CCCCC2)c2ccc(C(=O)NS(=O)(=O)N(C)C)cc21 (centres unmarked)	1 to 500	1 to 500	–	–
COc1ccc2c(c1)C1CC1(C(=O)N1CC3CCC(C1)N3C(C)C)Cn1c-2c(C2CCCCC2)c2ccc(C(=O)NS(=O)(=O)N(C)C)cc21 (centres unmarked)	< 20	1 to 500	–	–
COc1ccc2c(c1)C1CC1(C(=O)N1[C@@H]3CC[C@H]1CN(S(C)(=O)=O)C3)Cn1c-2c(C2CCCCC2)c2ccc(C(=O)NS(=O)(=O)N(C)C)cc21 (some centres unmarked)	1 to 500	1 to 500	–	–
CN1CC2CCC(C1)N2C(=O)C1=Cc2c(OC(F)(F)F)cccc2-c2c(C3CCCCC3)c3ccc(C(=O)NS(=O)(=O)N(C)C)cc3n2C1	> 500	> 500	–	–
COC(=O)c1ccc2c(C3CCCCC3)c3n(c2c1)CC1(C(=O)N2C4CCC2CN(C)C4)CC1c1c(OC)cccc1-3 (centres unmarked)	> 500	–	–	–
COc1cccc2c1C1CC1(C(=O)N1C3CCC1CN(C)C3)Cn1c-2c(C2CCCCC2)c2ccc(C(=O)O)cc21 (centres unmarked)	1 to 500	1 to 500	–	–
COC(=O)c1ccc2c(C3CCCCC3)c3n(c2c1)CC1(C(=O)N2C4CCC2CN(C)C4)CC1c1c(OC(F)(F)F)cccc1-3 (centres unmarked)	> 500	–	–	–
COc1cccc2c1C1CC1(C(=O)N1C3CCC1CN(C)C3)Cn1c-2c(C2CCCCC2)c2ccc(C(=O)NS(=O)(=O)N(C)C)cc21 (centres unmarked)	1 to 500	> 500	–	–
CN1CC2CCC(C1)N2C(=O)C12CC1c1c(OC(F)(F)F)cccc1-c1c(C3CCCCC3)c3ccc(C(=O)O)cc3n1C2 (centres unmarked)	1 to 500	1 to 500	–	–
CN1CC2CCC(C1)N2C(=O)C12CC1c1c(OC(F)(F)F)cccc1-c1c(C3CCCCC3)c3ccc(C(=O)NS(=O)(=O)N(C)C)cc3n1C2 (centres unmarked)	1 to 500	1 to 500	–	–
COc1ccc2c(c1)C1CC1(C(=O)N1[C@@H]3CC[C@H]1CN(C(=O)N(C)C)C3)Cn1c-2c(C2CCCCC2)c2ccc(C(=O)NS(=O)(=O)N(C)C)cc21 (some centres unmarked)	1 to 500	1 to 500	–	–
COc1ccc2c(c1)C1CC1(C(=O)N1[C@@H]3CC[C@H]1CN(C(=O)OCc1ccccc1)C3)Cn1c-2c(C2CCCCC2)c2ccc(C(=O)NS(=O)(=O)N(C)C)cc21 (some centres unmarked)	1 to 500	1 to 500	–	–
COc1ccc2c(c1)C1CC1(C(=O)N1[C@@H]3CC[C@H]1CN(Cc1ccccc1)C3)Cn1c-2c(C2CCCCC2)c2ccc(C(=O)NS(=O)(=O)N(C)C)cc21 (some centres unmarked)	1 to 500	1 to 500	–	–
COc1ccc2c(c1)C1CC1(C(=O)N1[C@@H]3CC[C@H]1CN(C(C)=O)C3)Cn1c-2c(C2CCCCC2)c2ccc(C(=O)NS(=O)(=O)N(C)C)cc21 (some centres unmarked)	1 to 500	1 to 500	–	–
COc1ccc2c(c1)[C@@H]1C[C@]1(C(=O)N1[C@@H]3CC[C@H]1CN(S(C)(=O)=O)C3)Cn1c-2c(C2CCCCC2)c2ccc(C(=O)NS(=O)(=O)N(C)C)cc21	1 to 500	1 to 500	–	–
COc1ccc2c(c1)[C@@H]1C[C@]1(C(=O)N1[C@@H]3CC[C@H]1CN(C(=O)N(C)C)C3)Cn1c-2c(C2CCCCC2)c2ccc(C(=O)NS(=O)(=O)N(C)C)cc21	1 to 500	1 to 500	–	–
COc1ccc2c(c1)C1CC1(C(=O)N1C3CCC1CN(C)C3)Cn1c-2c(C2CCCCC2)c2ccc(C(=O)NS(=O)(=O)C(C)C)cc21 (centres unmarked)	–	1 to 500	–	–
COc1ccc2c(c1)[C@H]1C[C@@]1(C(=O)N1C3CCC1CN(C)C3)Cn1c-2c(C2CCCCC2)c2ccc(C(=O)NS(=O)(=O)C(C)C)cc21	–	1 to 500	–	–
COc1ccc2c(c1)[C@@H]1C[C@]1(C(=O)N1C3CCC1CN(C)C3)Cn1c-2c(C2CCCCC2)c2ccc(C(=O)NS(=O)(=O)C(C)C)cc21	–	1 to 500	–	–
COc1ccc2c(c1)C1CC1(C(=O)N1C3CCC1CN(C)C3)Cn1c-2c(C2CCCCC2)c2ccc(C(=O)NS(=O)(=O)C3CCCC3)cc21 (centres unmarked)	–	1 to 500	–	–
COc1ccc2c(c1)C1CC1(C(=O)N1C3CCC1CN(C)C3)Cn1c-2c(C2CCCCC2)c2ccc(C(=O)NS(=O)(=O)CC(C)C)cc21 (centres unmarked)	–	–	1 to 500	–
CCCS(=O)(=O)NC(=O)c1ccc2c(C3CCCCC3)c3n(c2c1)CC1(C(=O)N2C4CCC2CN(C)C4)CC1c1cc(OC)ccc1-3 (centres unmarked)	–	1 to 500	–	–
CCC(C)S(=O)(=O)NC(=O)c1ccc2c(C3CCCCC3)c3n(c2c1)CC1(C(=O)N2C4CCC2CN(C)C4)CC1c1cc(OC)ccc1-3 (centres unmarked)	–	1 to 500	–	–
COc1ccc2c(c1)C1CC1(C(=O)N1C3CCC1CN(C)C3)Cn1c-2c(C2CCCCC2)c2ccc(C(=O)NS(=O)(=O)C(C)(C)C)cc21 (centres unmarked)	–	1 to 500	–	–
CN1CC2CCC(C1)N2C(=O)C12CC1c1ccccc1-c1c(C3CCCCC3)c3ccc(C(=O)NS(=O)(=O)N(C)C)cc3n1C2 (centres unmarked)	–	1 to 500	–	–
COc1ccc2c(c1)C1CC1(C(=O)N1C3CCC1CN(C)C3)Cn1c-2c(C2CCCCC2)c2ccc(C(=O)NS(=O)(=O)CCC(F)(F)F)cc21 (centres unmarked)	–	1 to 500	–	–
COc1ccc2c(c1)C1CC1(C(=O)N1C3CCC1CN(C)C3)Cn1c-2c(C2CCCCC2)c2ccc(C(=O)NS(=O)(=O)CC(F)(F)F)cc21 (centres unmarked)	–	1 to 500	–	–
CC(C)S(=O)(=O)NC(=O)c1ccc2c(C3CCCCC3)c3n(c2c1)CC1(C(=O)N2C4CCC2CN(C)C4)CC1c1ccccc1-3 (centres unmarked) [drawing 126]	–	1 to 500	–	–
CC(C)S(=O)(=O)NC(=O)c1ccc2c(C3CCCCC3)c3n(c2c1)CC1(C(=O)N2C4CCC2CN(C)C4)CC1c1ccccc1-3 (centres unmarked) [drawing 130]	–	–	–	1 to 500
CC(C)S(=O)(=O)NC(=O)c1ccc2c(C3CCCCC3)c3n(c2c1)CC1(C(=O)N2C4CCC2CN(C)C4)CC1c1ccccc1-3 (centres unmarked) [drawing 131]	–	–	–	1 to 500

— patent US20130171098A1, “Cyclopropyl Fused Indolobenzazepine HCV NS5B Inhibitors” (priority 2006, published 2013)
